Values belong to the compound of their own block, whether it stands above or below them.
Tests used:
HL-60 [1] = assay: Antiproliferative activity against human HL60 cells after 48 hrs by MTT assay; assay type: functional, cell-based; conditions: HL-60, 48 h
[2] = Inhibition of polymerization of tubulin by turbidimetry
HL-60 [3] = assay: Induction of apoptosis in human HL60 cells assessed as fractions of fragmented DNA at 0.1 uM after 24 hrs using propidium iodide staining by flow cytometry (reference value: 0.53%); assay type: functional
HL-60 [4] = assay: Induction of apoptosis in human HL60 cells after 48 hrs using propidium iodide by flow cytometry; assay type: functional, cell-based; conditions: for EC50: HL-60, 48 h
HL-60 [5] = assay: Induction of apoptosis in human HL60 cells assessed as fractions of fragmented DNA at 0.1 uM after 48 hrs using propidium iodide staining by flow cytometry (reference value: 1.66%); assay type: functional
HL-60 [6] = assay: Induction of apoptosis in human HL60 cells assessed as fractions of fragmented DNA at 0.25 uM after 48 hrs using propidium iodide staining by flow cytometry (reference value: 1.66%); assay type: functional
HL-60 [7] = assay: Ratio of compound EC50 to E7010 EC50 for human HL60 cells; assay type: functional
HL-60 [8] = assay: Cell cycle arrest in human HL60 cells assessed as accumulation at G2/M phase at 0.1 uM after 24 hrs using propidium iodide staining by flow cytometry (reference value: 22.26%); assay type: functional
HL-60 [9] = assay: Induction of apoptosis in human HL60 cells assessed as fractions of fragmented DNA at 0.05 uM after 48 hrs using propidium iodide staining by flow cytometry (reference value: 1.66%); assay type: functional
HL-60 [10] = assay: Cell cycle arrest in human HL60 cells assessed as accumulation at G0/G1 phase at 0.1 uM after 24 hrs using propidium iodide staining by flow cytometry (reference value: 55.47%); assay type: functional
HL-60 [11] = assay: Cell cycle arrest in human HL60 cells assessed as accumulation at S phase at 0.1 uM after 24 hrs using propidium iodide staining by flow cytometry (reference value: 17.62%); assay type: functional
HL-60 [12] = assay: Induction of apoptosis in human HL60 cells assessed as fractions of fragmented DNA at 1 uM after 48 hrs using propidium iodide staining by flow cytometry (reference value: 1.66%); assay type: functional
HL-60 [13] = assay: Induction of apoptosis in human HL60 cells assessed as fractions of fragmented DNA at 0.5 uM after 48 hrs using propidium iodide staining by flow cytometry (reference value: 1.66%); assay type: functional
HL-60 [14] = assay: Cell cycle arrest in human HL60 cells assessed as accumulation at G0/G1 phase at 0.5 uM after 24 hrs using propidium iodide staining by flow cytometry (reference value: 55.47%); assay type: functional
HL-60 [15] = assay: Induction of apoptosis in human HL60 cells assessed as fractions of fragmented DNA at 0.5 uM after 24 hrs using propidium iodide staining by flow cytometry (reference value: 0.53%); assay type: functional
HL-60 [16] = assay: Cell cycle arrest in human HL60 cells assessed as accumulation at S phase at 0.5 uM after 24 hrs using propidium iodide staining by flow cytometry (reference value: 17.62%); assay type: functional
HL-60 [17] = assay: Cell cycle arrest in human HL60 cells assessed as accumulation at G2/M phase at 0.5 uM after 24 hrs using propidium iodide staining by flow cytometry (reference value: 22.26%); assay type: functional

Structure (SMILES): COc1cc(/C=C(/C(=O)O)c2ccc(-c3ccccc3)cc2)cc(OC)c1OC
IC50 (HL-60 [1]): 2.4 µM

Structure (SMILES): COc1cc(C(=O)N2c3ccccc3CC2C)cc(OC)c1OC (configuration not stated)
IC50 (HL-60 [1]): 3.2 µM

Structure (SMILES): COc1cc(C(=O)/C(=C/c2cccnc2)c2nc3ccccc3o2)cc(OC)c1OC
IC50 (HL-60 [1]): 1.7 µM

Structure (SMILES): COc1cc(C(=O)c2c(C)cn3c(CCC#N)cccc23)cc(OC)c1OC
IC50 (HL-60 [1]): 1.4 µM
IC50 [2]: 5 µM

Structure (SMILES): COc1cc(C2C=C(c3cccc(NC(C)=O)c3)Nc3ncnn32)cc(OC)c1OC (configuration not stated)
IC50 (HL-60 [1]): 0.33 µM
IC50 [2]: > 25 µM

Structure (SMILES): COc1cc(C2C=C(c3cccs3)Nc3ncnn32)cc(OC)c1OC (configuration not stated)
Activity (HL-60 [12]): 85.69%
Activity (HL-60 [4]): Dose-dependent effect
EC50 (HL-60 [4]): 0.78 µM
IC50 (HL-60 [1]): 0.1 µM
Activity (HL-60 [13]): 10.35%
IC50 [2]: 12.8 µM
Activity (HL-60 [9]): 6.03%
Activity (HL-60 [14]): 53.87%
Activity (HL-60 [15]): 0.48%
Activity (HL-60 [16]): 15.16%
Activity (HL-60 [17]): 25.93%

Structure (SMILES): COc1cc(C2C=C(c3ccccc3)Nc3ncnn32)cc(OC)c1OC (configuration not stated)
Activity (HL-60 [3]): 0.81%
Activity (HL-60 [4]): Dose-dependent effect
EC50 (HL-60 [4]): 0.22 µM
IC50 (HL-60 [1]): 0.17 µM
Activity (HL-60 [5]): 4.06%
Activity (HL-60 [6]): 60.88%
Ratio EC50 (HL-60 [7]): 2
IC50 [2]: 13.7 µM
Activity (HL-60 [8]): 25.82%
Activity (HL-60 [9]): 4.32%
Activity (HL-60 [10]): 53.51%
Activity (HL-60 [11]): 15.92%

Structure (SMILES): COc1cc(C2C=C(c3ccc(Cl)cc3)Nc3ncnn32)cc(OC)c1OC (configuration not stated)
IC50 (HL-60 [1]): 0.39 µM
IC50 [2]: > 25 µM

Structure (SMILES): COc1ccc(C2=CC(c3cc(OC)c(OC)c(OC)c3)n3ncnc3N2)cc1 (configuration not stated)
Activity (HL-60 [3]): 0.93%
Activity (HL-60 [4]): Dose-dependent effect
EC50 (HL-60 [4]): 0.08 µM
IC50 (HL-60 [1]): 0.19 µM
Activity (HL-60 [5]): 77.49%
Activity (HL-60 [6]): 92.36%
Ratio EC50 (HL-60 [7]): 2
IC50 [2]: 10.4 µM
Activity (HL-60 [8]): 24.39%
Activity (HL-60 [9]): 4.94%
Activity (HL-60 [10]): 51.67%
Activity (HL-60 [11]): 18.82%

Structure (SMILES): CCc1ccc(C2=CC(c3cc(OC)c(OC)c(OC)c3)n3ncnc3N2)cc1 (configuration not stated)
IC50 (HL-60 [1]): 0.37 µM
IC50 [2]: > 25 µM

Continued by falling IC50 (HL-60 [1]), values first:

IC50 (HL-60 [1]): 2.4 µM
Structure (SMILES): COc1ccccc1NC(=O)CSc1nnc(-c2cc(OC)c(OC)c(OC)c2)n1-c1ccc(C)cc1

IC50 (HL-60 [1]): 2.4 µM
Structure (SMILES): COc1ccc(/C=C(/C(=O)c2cc(OC)c(OC)c(OC)c2)c2nc3ccccc3o2)cc1

IC50 (HL-60 [1]): 2 µM
Structure (SMILES): COc1cc(C(=O)N2CCc3ccccc32)cc(OC)c1OC

IC50 (HL-60 [1]): 2 µM
Structure (SMILES): COc1cc(C(=O)N2CCCc3ccccc32)cc(OC)c1OC

IC50 (HL-60 [1]): 1.7 µM
Structure (SMILES): COc1cc(/C=C(/C(=O)c2cc(OC)c(OC)c(OC)c2)c2nc3ccccc3o2)cc(OC)c1OC

IC50 (HL-60 [1]): 0.6 µM
IC50 [2]: 20 µM
Structure (SMILES): COc1cc(C(=O)c2c(-c3ccccc3)cc3ccccn23)cc(OC)c1OC

IC50 (HL-60 [1]): 0.34 µM
IC50 [2]: > 24 µM
Structure (SMILES): COc1ccc(C2=CC(c3cc(OC)c(OC)c(OC)c3)n3ncnc3N2)cc1OC (configuration not stated)

EC50 (HL-60 [4]): 0.07 µM
IC50 (HL-60 [1]): 0.13 µM
IC50 [2]: 12.8 µM
Structure (SMILES): COc1cc(C2C=C(c3ccc(C)cc3)Nc3ncnn32)cc(OC)c1OC (configuration not stated)
Activity (HL-60 [3]): 22.94%
Activity (HL-60 [4]): Dose-dependent effect
Activity (HL-60 [5]): 89.85%
Activity (HL-60 [6]): 90.56%
Ratio EC50 (HL-60 [7]): 2
Activity (HL-60 [8]): 48.64%
Activity (HL-60 [9]): 4.61%
Activity (HL-60 [10]): 9.7%
Activity (HL-60 [11]): 16.5%

— ChEMBL document CHEMBL1250532, “Structure-based virtual screening of novel tubulin inhibitors and their characterization as anti-mitotic agents” (Bioorg Med Chem, 2010)
